Laboratory results taken from ChEMBL document CHEMBL6103587, “Anti-tumor effects of artemisinin-based oligomers: From monomer to trimer as a novel drug-enhancing strategy” (Eur J Med Chem, 2025).
Each block holds one molecule with its values, some of them ahead of it. The source made the active and inactive calls. No cut-off for these calls is given here.

Columns and labels:
MCF7 [1] = experiment: Antitumor activity against human MCF7 cells assessed as reduction in cell viability incubated for 72 hrs by CCK8 assay; assay type: functional, cell-based; details: MCF7, 72 h
MCF7 [2] = experiment: Inhibition of colony formation in human MCF7 cells assessed as reduction in number of colonies measured after 14 days by giemsa staining based dissection microscopic analysis; assay type: functional, cell-based; details: dose 0.05-0.2 µM, time 14.0 day
MCF7 [3] = experiment: Induction of apoptosis in human MCF7 cells assessed as late apoptotic cells at 0.1 uM by Annexin V-FITC/PI staining based flow cytometric analysis (reference value: 1.97 %); assay type: functional
MCF7 [4] = experiment: Induction of apoptosis in human MCF7 cells assessed as viable cells at 0.2 uM by Annexin V-FITC/PI staining based flow cytometric analysis (reference value: 92.01 %); assay type: functional; details: read-out: Activity
Mitochondrial membrane [5] = experiment: Induction of mitochondrial membrane potential loss in human MCF7 cells assessed as increase in JC-1 monomer level at 0.05 to 0.2 uM incubated for 48 hrs by JC-1 staining based confocal microscopic analysis; assay type: cell membranes; details: dose 0.05-0.2 µM
MCF7 [6] = experiment: Inhibition of colony formation in human MCF7 cells assessed as reduction in clone formation rate at 0.05 to 0.2 uM measured after 14 days by giemsa staining based dissection microscopic analysis; assay type: functional, cell-based; details: dose 0.05-0.2 µM, time 14.0 day
MCF7 [7] = experiment: Induction of apoptosis in human MCF7 cells assessed as necrotic cells at 0.2 uM by Annexin V-FITC/PI staining based flow cytometric analysis (reference value: 0.27 %); assay type: functional
MCF7 [8] = experiment: Induction of ferroptosis in human MCF7 cells assessed as reduction in GPX4 expression at 0.05 to 0.2 uM incubated for 48 hrs by Western blot analysis; assay type: functional, cell-based; details: dose 0.05-0.2 µM
MCF7 [9] = experiment: Induction of apoptosis in human MCF7 cells assessed as necrotic cells at 0.05 uM by Annexin V-FITC/PI staining based flow cytometric analysis (reference value: 0.27 %); assay type: functional
MCF7 [10] = experiment: Induction of apoptosis in human MCF7 cells assessed as late apoptotic cells at 0.05 uM by Annexin V-FITC/PI staining based flow cytometric analysis (reference value: 1.97 %); assay type: functional
MCF7 [11] = experiment: Induction of apoptosis in human MCF7 cells assessed as viable cells at 0.05 uM by Annexin V-FITC/PI staining based flow cytometric analysis (reference value: 92.01 %); assay type: functional; details: read-out: Activity
MCF7 [12] = experiment: Induction of apoptosis in human MCF7 cells assessed as early apoptotic cells at 0.1 uM by Annexin V-FITC/PI staining based flow cytometric analysis (reference value: 5.75 %); assay type: functional
MCF7 [13] = experiment: Antitumor activity against human MCF7 cells assessed as decrease in nuclear volume at 0.05 to 0.2 uM incubated for 24 hrs by Hoechst 33342 staining based confocal microscopic analysis; assay type: functional, cell-based; details: dose 0.05-0.2 µM
MCF7 [14] = experiment: Antitumor activity against human MCF7 cells assessed as […] at 0.05 to 0.2 uM incubated for 24 hrs by Hoechst 33342 staining based confocal microscopic analysis; assay type: functional, cell-based; details: dose 0.05-0.2 µM
MCF7 [15] = experiment: Antitumor activity against human MCF7 cells assessed as decrease in number of viable cells at 0.05 to 0.2 uM incubated for 24 hrs by Hoechst 33342 staining based confocal microscopic analysis; assay type: functional, cell-based; details: dose 0.05-0.2 µM
MCF7 [16] = experiment: Induction of apoptosis in human MCF7 cells assessed as increase in death ratio at 0.05 to 0.2 uM by Annexin V-FITC/PI staining based flow cytometric analysis; assay type: functional, cell-based; details: dose 0.05-0.2 µM
MCF7 [17] = experiment: Induction of apoptosis in human MCF7 cells assessed as early apoptotic cells at 0.05 uM by Annexin V-FITC/PI staining based flow cytometric analysis (reference value: 5.75 %); assay type: functional
MCF7 [18] = experiment: Induction of apoptosis in human MCF7 cells assessed as increase in caspase 3 level at 0.05 to 0.2 uM incubated for 48 hrs by Western blot analysis; assay type: functional, cell-based; details: dose 0.05-0.2 µM
MCF7 [19] = experiment: Induction of apoptosis in human MCF7 cells assessed as late apoptotic cells at 0.2 uM by Annexin V-FITC/PI staining based flow cytometric analysis (reference value: 1.97 %); assay type: functional
MCF7 [20] = experiment: Induction of apoptosis in human MCF7 cells assessed as increase in Bax level at 0.05 to 0.2 uM incubated for 48 hrs by Western blot analysis; assay type: functional, cell-based; details: dose 0.05-0.2 µM
MCF7 [21] = experiment: Induction of apoptosis in human MCF7 cells assessed as viable cells at 0.1 uM by Annexin V-FITC/PI staining based flow cytometric analysis (reference value: 92.01 %); assay type: functional; details: read-out: Activity
MCF7 [22] = experiment: Induction of apoptosis in human MCF7 cells assessed as necrotic cells at 0.1 uM by Annexin V-FITC/PI staining based flow cytometric analysis (reference value: 0.27 %); assay type: functional
Mitochondrial membrane [23] = experiment: Induction of mitochondrial membrane potential loss in human MCF7 cells assessed as reduction in JC-1 aggregate formation at 0.05 to 0.2 uM incubated for 48 hrs by JC-1 staining based confocal microscopic analysis; assay type: cell membranes; details: dose 0.05-0.2 µM
MCF7 [24] = experiment: Induction of apoptosis in human MCF7 cells assessed as early apoptotic cells at 0.2 uM by Annexin V-FITC/PI staining based flow cytometric analysis (reference value: 5.75 %); assay type: functional

Compound: C[C@H]1[C@@H](OCCN)O[C@@H]2O[C@@]3(C)CC[C@H]4[C@H](C)CC[C@@H]1[C@@]24OO3
- IC50 (MCF7 [1]): > 10 µM

Compound: C[C@H]1[C@@H](OCCNCCO[C@H]2O[C@@H]3O[C@@]4(C)CC[C@H]5[C@H](C)CC[C@@H]([C@H]2C)[C@@]35OO4)O[C@@H]2O[C@@]3(C)CC[C@H]4[C@H](C)CC[C@@H]1[C@@]24OO3
- IC50 (MCF7 [1]): 3.14 µM

- IC50 (MCF7 [1]): > 10 µM
Compound: C[C@H]1[C@@H](O)O[C@@H]2O[C@@]3(C)CC[C@H]4[C@H](C)CC[C@@H]1[C@@]24OO3 [ARTENIMOL]

- IC50 (MCF7 [1]): 4.33 µM
Compound: Nc1ccn([C@@H]2O[C@H](CO)[C@@H](O)C2(F)F)c(=O)n1 [GEMCITABINE]

Compound: C[C@H]1[C@@H](OCCN(CCO[C@H]2O[C@@H]3O[C@@]4(C)CC[C@H]5[C@H](C)CC[C@@H]([C@H]2C)[C@@]35OO4)CCO[C@H]2O[C@@H]3O[C@@]4(C)CC[C@H]5[C@H](C)CC[C@@H]([C@H]2C)[C@@]35OO4)O[C@@H]2O[C@@]3(C)CC[C@H]4[C@H](C)CC[C@@H]1[C@@]24OO3
- inhibition (MCF7 [2]): Dose-dependent-effect
- Activity (MCF7 [3]): 10.27%
- viability at 0.2 µM (MCF7 [4]): 62.5%
- Activity (Mitochondrial membrane [5]): Active; Partial Loss Of Membrane Potential Observed
- inhibition (MCF7 [6]): Active
- Activity (MCF7 [7]): 0.48%
- Activity (MCF7 [8]): Active
- IC50 (MCF7 [1]): 0.09 µM
- Activity (MCF7 [9]): 0.74%
- Activity (MCF7 [10]): 9.54%
- viability at 0.05 µM (MCF7 [11]): 76.5%
- Activity (MCF7 [12]): 14.22%
- Activity (MCF7 [13]): Active
- Activity (MCF7 [14]): Active
- Activity (MCF7 [15]): Active
- Activity (MCF7 [16]): Active
- Activity (MCF7 [17]): 13.23%
- Activity (MCF7 [18]): Active
- Activity (MCF7 [19]): 20.21%
- Activity (MCF7 [20]): Active
- viability at 0.1 µM (MCF7 [21]): 74.4%
- Activity (MCF7 [22]): 1.14%
- Activity (Mitochondrial membrane [23]): Active; Partial Loss Of Membrane Potential Observed
- Activity (MCF7 [24]): 16.86%
